# Results reported in article PMC10974276, “Physiological Functions of the Cello-Oligosaccharides Binding CebE in the Pathogenic Streptomyces sp. AMCC400023” (Microorganisms, 2024).
# How the values were obtained:
# [1] = target: T1, CebE^7671; test: microscale thermophoresis; format: binding, Streptomyces sp. AMCC400023; conditions: 25 °C; protein 800 nM, dye-labelled; ligand series from 270 mM
# T1 construct: N-terminal His tag (pET28a); E. coli BL21(C43); Ni-NTA
# [2] = target: T2, CebE^5601; test: microscale thermophoresis; format: binding, Streptomyces sp. AMCC400023; conditions: 25 °C; protein 800 nM, dye-labelled; ligand series from 100 µM
# T2 construct: N-terminal His tag (pET28a); E. coli BL21(C43); Ni-NTA; labelled with red fluorescent dye
Structure (SMILES),Kd [1],Kd [2]
OC[C@H]1O[C@@H](O[C@H]2[C@H](O)[C@@H](O)[C@H](O[C@H]3[C@H](O)[C@@H](O)C(O)O[C@@H]3CO)O[C@@H]2CO)[C@H](O)[C@@H](O)[C@@H]1O (stereo partly shown) [cellotriose],2720 µM,1.61 µM
OC[C@H]1O[C@@H](O[C@H]2[C@H](O)[C@@H](O)C(O)O[C@@H]2CO)[C@H](O)[C@@H](O)[C@@H]1O (stereo partly shown) [cellobiose],1280 µM,0.977 µM
